Results from patent US10506759B2, “Rice seed treatment agent” (KUMIAI CHEMICAL INDUSTRY CO., LTD., priority 2015, dated 2019).
Read-outs that look alike come from different tables or passages of the source.

Experiments:
paddy rice [1] = test: Test Example 1: germination rate of treated paddy seeds (pot test); assay type: in vivo
Protocol: (§1) Treatment of dried paddy seeds was carried out at a coating ratio of 0.5 (seeds:iron powder=1:0.5). More specifically, paddy seeds, an iron powder, and calcined gypsum were mixed and stirred together while spraying water thereon, using a coating machine according to a conventional method, to coat the seeds with the iron powder and the calcined gypsum. The outer layer of the coated seeds was further similarly coated with finishing calcined gypsum mixed with each of the paddy seed treatment agents containing the herbicidal active components shown in Tables 2 to 6.
In a 200-cm^2 plastic pot, paddy field soil was placed, and tillage was carried out, followed by sowing seeds of Echinochloa oryzicola and Scirpus juncoides on the soil surface. Then, tubers of Eleocharis kuroguwai in the germination state were buried in such a manner that tips of the sprouts in tubers are exposed to the outside of the soil surface. Four paddy seeds treated with each paddy seed treatment agent obtained in Preparation Example were sown, and water was gently introduced to allow flooding to a depth of 4 cm. On Day 7 after the sowing, the water was removed by suction. When the rice seedlings have grown to the one-leaf stage, flooding was allowed again to a depth of 4 cm. On Day 15 after the sowing, the germination rate of the paddy seeds and the growth-inhibitory effect on the weeds were judged. The germination rate of the paddy seeds is expressed as %, and the growth-inhibitory effect on the weeds is expressed as a value of 0 to 100 representing the degree of inhibition, wherein 0 represents no inhibition, and 100 represents complete death.

paddy rice [2] = conditions: in vivo, 22 days
Protocol: as §1
In a 200-cm^2 plastic pot, paddy field soil was placed, and tillage was carried out, followed by sowing seeds of Scirpus juncoides on the soil surface. Then, the seeds were covered with 0.5-cm thick soil. Subsequently, flooding was allowed to a depth of 4 cm, followed by sowing seeds of Monochoria vaginalis on the soil surface. When the Monochoria vaginalis reached the five-leaf stage, three paddy seeds treated with each paddy seed treatment agent obtained in Preparation Example were sown. […] The germination rate of the paddy seeds is expressed as %, and the growth-inhibitory effect on the weeds is expressed as a value of 0 to 100 representing the degree of inhibition, wherein 0 represents no inhibition, and 100 represents complete death.

Lindernia species = test: Test Example 2: growth-inhibitory effect on weeds (pot test); assay type: in vivo; conditions: Table 6; spontaneously grown weeds; scale 0 to 100; Day 22 after sowing
Protocol: as §1
(§2) In a 200-cm^2 plastic pot, paddy field soil was placed, and tillage was carried out, followed by sowing seeds of Scirpus juncoides on the soil surface. Then, the seeds were covered with 0.5-cm thick soil. Subsequently, flooding was allowed to a depth of 4 cm, followed by sowing seeds of Monochoria vaginalis on the soil surface. When the Monochoria vaginalis reached the five-leaf stage, three paddy seeds treated with each paddy seed treatment agent obtained in Preparation Example were sown. On Day 22 after the sowing of paddy seeds, the germination rate of the paddy seeds and the growth-inhibitory effect on the weeds were judged. Since Lindernia species were spontaneously grown in the test field soil, the growth-inhibitory effect on the Lindernia species were also judged. The germination rate of the paddy seeds is expressed as %, and the growth-inhibitory effect on the weeds is expressed as a value of 0 to 100 representing the degree of inhibition, wherein 0 represents no inhibition, and 100 represents complete death.

Monochoria vaginalis = test: as above; assay type: in vivo; conditions: Table 6; paddy seeds sown at five-leaf stage of weed; scale 0 to 100; Day 22 after sowing
Protocol: as §1, §2

Scirpus juncoides = test: as above; assay type: in vivo; conditions: Table 6; scale 0 to 100 (complete death); Day 22 after sowing of paddy seeds
Protocol: as §1, §2

| SMILES | Germination rate of paddy rice (%) (paddy rice [1]; in vivo) | Germination rate of paddy rice (%) (paddy rice [1]; Table 2, iron-coated seeds treated with agent (a.i. g per 1 kg seeds as in row), Day 15 after sowing) | Germination rate of paddy rice (%) (paddy rice [2]) | Growth-inhibitory rate Lindernia species (Lindernia species) | Growth-inhibitory rate Monochoria vaginalis (Monochoria vaginalis) | Growth-inhibitory rate Scirpus juncoides (Scirpus juncoides) |
| --- | --- | --- | --- | --- | --- | --- |
| CS(=O)(=O)c1ccc(C(=O)C2=C(Sc3ccccc3)C3CCC(C3)C2=O)c(Cl)c1 (stereo not shown) [compound 2, Benzobicyclon] | 50% | – | – | – | – | – |
| COc1ccc(-n2c(=O)c(C(=O)C3C(=O)CCCC3=O)nc3c(Cl)cccc32)cc1 [Example 1, Fenquinotrione] | – | 100% | 100% | 95 | 95 | 98 |
| CS(=O)(=O)c1ccc(C(=O)C2C(=O)CCCC2=O)c(Cl)c1COCC1CCCO1 (stereo not shown) [compound 1, Tefuryltrione] | 50% | – | – | – | – | – |
